For orientation: IC50 means the concentration that gives 50% inhibition.

Drawing on ChEMBL document CHEMBL4392844 (Bioorg Med Chem, 2019), this text covers IC50, Activity and Ratio for 17 compounds.

Calls of active or inactive are those of the source. The rule behind the calls is not given here.

The test system of one assay is A549. As to the kind of experiment: Cytotoxicity against human A549 cells assessed as reduction in cell proliferation measured after 72 hrs by MTT assay. Format: functional, cell-based. The note with it: A549, 72 h. On the technique in general: Tetrazolium dyes change colour on reduction, which living cells bring about.
Assay [1] deals with HT-29. As to the kind of experiment: Cytotoxicity against human HT-29 cells assessed as reduction in cell proliferation measured after 72 hrs by MTT assay. In kind it is functional, cell-based. The note with it: HT-29, 72 h.
The subject of assay [2] is HT-29. In words: Antiproliferative activity against human HT-29 cells assessed as reduction in cell proliferation by IncuCyte live-cell imaging analysis. Format: functional, cell-based.
Assay [3] concerns HT-29. As to the kind of experiment: Antiproliferative activity against human HT-29 cells assessed as reduction in cell proliferation by phase contrast microscopy. In kind it is functional, cell-based.
Assay [4] deals with HT-29. As to the kind of experiment: Antiproliferative activity against human HT-29 cells assessed as reduction in cell proliferation at 10 ug/ml after 72 hrs by phase contrast microscopy. Format: functional, cell-based.
Assay [5] relates to HT-29. As to the kind of experiment: Antiproliferative activity against human HT-29 cells assessed as increase in dead cell population by IncuCyte live-cell imaging analysis. In kind it is functional, cell-based.
Assay [6] deals with HT-29. As to the kind of experiment: Antiproliferative activity against human HT-29 cells assessed as increase in dead cell population at 10 ug/ml measured after 14 hrs by IncuCyte live-cell imaging analysis. Format: functional, cell-based.
Assay [7] deals with HT-29. As to the kind of experiment: Ratio of test compound effect to cabozantinib effect for antiproliferative activity against human HT-29 cells assessed as increase in dead cell population measured after 14 hrs by IncuCyte live-cell imaging analysis. In kind it is functional.
Assay [8] concerns HT-29. In words: Antiproliferative activity against human HT-29 cells assessed as increase in dead cell population at 1.11 ug/ml measured after 66 hrs by IncuCyte live-cell imaging analysis. Format: functional, cell-based.
For assay [9], the system named is HT-29. As to the kind of experiment: Antimigratory activity against human HT-29 cells assessed as reduction in cell migration at 3.33 ug/ml measured every hour for 72 hrs by IncuCyte real-time cell imaging analysis. Format: functional, cell-based.
Assay [10] deals with HT-29. In words: Antimigratory activity against human HT-29 cells assessed as reduction in cell migration at 3.33 ug/ml measured every hour for 48 hrs by IncuCyte real-time cell imaging analysis. Format: functional, cell-based.
Assay [11] relates to HT-29. In words: Induction of apoptosis in human HT-29 cells measured after 72 hrs by Annexin V-FITC/propidium iodide staining based FACS analysis. In kind it is functional, cell-based. For orientation: In flow cytometry, cells or beads pass a laser one at a time.
For assay [12], the system named is HT-29. In words: Induction of apoptosis in human HT-29 cells assessed as early apoptotic cells at 5 ug/ml measured after 24 hrs by Annexin V-FITC/propidium iodide staining based FACS analysis (reference value: 4.9%). In kind it is functional.
In assay [13] the test system is HT-29. In words: Induction of apoptosis in human HT-29 cells assessed as early apoptotic cells at 0.3 ug/ml measured after 24 hrs by Annexin V-FITC/propidium iodide staining based FACS analysis (reference value: 4.9%). Format: functional.
Assay [14] has as its system HT-29. As to the kind of experiment: Induction of apoptosis in human HT-29 cells assessed as early apoptotic cells at 1 ug/ml measured after 24 hrs by Annexin V-FITC/propidium iodide staining based FACS analysis (reference value: 4.9%). In kind it is functional.
Assay [15] concerns HT-29. In words: Induction of apoptosis in human HT-29 cells assessed as early apoptotic cells at 3 ug/ml measured after 24 hrs by Annexin V-FITC/propidium iodide staining based FACS analysis (reference value: 4.9%). Format: functional.
Assay [16] concerns the target T1, Receptor-type tyrosine-protein kinase FLT3 (Homo sapiens, UniProt P36888).
T1 sequence (P36888 whole entry): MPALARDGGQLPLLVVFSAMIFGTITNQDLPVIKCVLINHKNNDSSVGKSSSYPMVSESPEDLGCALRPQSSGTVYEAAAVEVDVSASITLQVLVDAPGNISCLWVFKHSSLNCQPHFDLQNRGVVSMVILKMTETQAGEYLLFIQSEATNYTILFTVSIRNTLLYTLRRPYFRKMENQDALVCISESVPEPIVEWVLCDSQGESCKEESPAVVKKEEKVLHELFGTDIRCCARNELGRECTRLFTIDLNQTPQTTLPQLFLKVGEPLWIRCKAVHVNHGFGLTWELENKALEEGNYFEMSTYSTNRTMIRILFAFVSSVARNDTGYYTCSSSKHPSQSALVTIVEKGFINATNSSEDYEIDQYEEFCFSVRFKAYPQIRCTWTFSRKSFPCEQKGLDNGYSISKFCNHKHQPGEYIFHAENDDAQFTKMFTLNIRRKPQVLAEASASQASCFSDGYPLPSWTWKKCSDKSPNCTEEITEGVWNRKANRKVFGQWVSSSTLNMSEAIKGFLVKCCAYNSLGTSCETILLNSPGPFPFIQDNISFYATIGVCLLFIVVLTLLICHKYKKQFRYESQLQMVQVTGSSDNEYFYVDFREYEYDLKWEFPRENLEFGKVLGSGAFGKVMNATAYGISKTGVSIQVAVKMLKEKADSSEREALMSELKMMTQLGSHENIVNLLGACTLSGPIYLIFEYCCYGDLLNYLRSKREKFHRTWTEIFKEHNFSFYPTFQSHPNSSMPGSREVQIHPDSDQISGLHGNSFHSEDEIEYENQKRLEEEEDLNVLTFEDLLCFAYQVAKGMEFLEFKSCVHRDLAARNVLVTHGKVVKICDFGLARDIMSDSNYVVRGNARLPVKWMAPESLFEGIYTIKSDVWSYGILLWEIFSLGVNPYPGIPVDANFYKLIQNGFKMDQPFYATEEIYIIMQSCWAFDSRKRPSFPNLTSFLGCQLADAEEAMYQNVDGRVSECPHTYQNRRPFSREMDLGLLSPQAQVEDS
In words: Inhibition of FLT3 (unknown origin) using FAM-labelled peptide as substrate measured after 10 mins by mobility shift assay.

The target in assay [17] is Vascular endothelial growth factor receptor 2 (Homo sapiens, UniProt P35968). In words: Inhibition of VEGFR2 (unknown origin) using FAM-labelled peptide as substrate measured after 10 mins by mobility shift assay.
Vascular endothelial growth factor receptor 2, sequence (P35968 whole entry): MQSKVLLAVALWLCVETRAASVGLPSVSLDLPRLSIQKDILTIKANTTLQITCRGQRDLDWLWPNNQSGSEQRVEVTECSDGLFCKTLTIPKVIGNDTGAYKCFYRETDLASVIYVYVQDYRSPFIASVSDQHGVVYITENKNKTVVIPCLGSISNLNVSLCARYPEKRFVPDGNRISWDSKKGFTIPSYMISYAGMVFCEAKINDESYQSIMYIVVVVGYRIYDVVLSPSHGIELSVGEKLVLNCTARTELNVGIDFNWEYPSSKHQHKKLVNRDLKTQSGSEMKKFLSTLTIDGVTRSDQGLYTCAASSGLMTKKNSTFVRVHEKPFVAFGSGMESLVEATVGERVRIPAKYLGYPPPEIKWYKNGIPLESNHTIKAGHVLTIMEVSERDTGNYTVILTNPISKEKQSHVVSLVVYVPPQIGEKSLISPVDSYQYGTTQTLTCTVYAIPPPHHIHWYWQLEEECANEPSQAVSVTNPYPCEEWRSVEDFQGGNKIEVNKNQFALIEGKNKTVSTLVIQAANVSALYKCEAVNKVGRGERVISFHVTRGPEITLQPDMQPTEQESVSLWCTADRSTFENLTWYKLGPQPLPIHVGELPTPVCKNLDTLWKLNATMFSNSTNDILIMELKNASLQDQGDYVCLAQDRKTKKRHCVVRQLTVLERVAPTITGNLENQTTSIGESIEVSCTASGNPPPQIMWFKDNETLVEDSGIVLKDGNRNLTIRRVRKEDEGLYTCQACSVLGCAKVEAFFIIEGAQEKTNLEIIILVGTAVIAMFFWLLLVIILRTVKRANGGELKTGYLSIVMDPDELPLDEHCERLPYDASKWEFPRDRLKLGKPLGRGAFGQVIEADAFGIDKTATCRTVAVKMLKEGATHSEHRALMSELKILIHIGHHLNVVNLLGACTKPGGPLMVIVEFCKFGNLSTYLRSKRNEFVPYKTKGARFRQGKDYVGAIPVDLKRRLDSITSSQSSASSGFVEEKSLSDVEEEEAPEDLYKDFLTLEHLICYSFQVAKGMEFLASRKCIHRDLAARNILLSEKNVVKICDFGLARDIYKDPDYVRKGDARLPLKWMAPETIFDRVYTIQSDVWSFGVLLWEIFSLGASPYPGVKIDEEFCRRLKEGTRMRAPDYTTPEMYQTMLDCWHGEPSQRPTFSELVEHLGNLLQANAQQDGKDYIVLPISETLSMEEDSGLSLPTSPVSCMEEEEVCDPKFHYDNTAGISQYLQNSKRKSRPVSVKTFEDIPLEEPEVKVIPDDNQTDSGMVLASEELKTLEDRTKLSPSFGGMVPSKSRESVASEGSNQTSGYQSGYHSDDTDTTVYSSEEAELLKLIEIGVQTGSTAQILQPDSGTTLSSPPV
Assay [18] has as its target Insulin-like growth factor 1 receptor (Homo sapiens, UniProt P08069). As to the kind of experiment: Inhibition of IGF1R (unknown origin) using FAM-labelled peptide as substrate measured after 10 mins by mobility shift assay.
The target of assay [19] is Mast/stem cell growth factor receptor Kit (Homo sapiens, UniProt P10721). As to the kind of experiment: Inhibition of c-KIT (unknown origin) using FAM-labelled peptide as substrate measured after 10 mins by mobility shift assay.
Mast/stem cell growth factor receptor Kit, sequence (P10721 whole entry): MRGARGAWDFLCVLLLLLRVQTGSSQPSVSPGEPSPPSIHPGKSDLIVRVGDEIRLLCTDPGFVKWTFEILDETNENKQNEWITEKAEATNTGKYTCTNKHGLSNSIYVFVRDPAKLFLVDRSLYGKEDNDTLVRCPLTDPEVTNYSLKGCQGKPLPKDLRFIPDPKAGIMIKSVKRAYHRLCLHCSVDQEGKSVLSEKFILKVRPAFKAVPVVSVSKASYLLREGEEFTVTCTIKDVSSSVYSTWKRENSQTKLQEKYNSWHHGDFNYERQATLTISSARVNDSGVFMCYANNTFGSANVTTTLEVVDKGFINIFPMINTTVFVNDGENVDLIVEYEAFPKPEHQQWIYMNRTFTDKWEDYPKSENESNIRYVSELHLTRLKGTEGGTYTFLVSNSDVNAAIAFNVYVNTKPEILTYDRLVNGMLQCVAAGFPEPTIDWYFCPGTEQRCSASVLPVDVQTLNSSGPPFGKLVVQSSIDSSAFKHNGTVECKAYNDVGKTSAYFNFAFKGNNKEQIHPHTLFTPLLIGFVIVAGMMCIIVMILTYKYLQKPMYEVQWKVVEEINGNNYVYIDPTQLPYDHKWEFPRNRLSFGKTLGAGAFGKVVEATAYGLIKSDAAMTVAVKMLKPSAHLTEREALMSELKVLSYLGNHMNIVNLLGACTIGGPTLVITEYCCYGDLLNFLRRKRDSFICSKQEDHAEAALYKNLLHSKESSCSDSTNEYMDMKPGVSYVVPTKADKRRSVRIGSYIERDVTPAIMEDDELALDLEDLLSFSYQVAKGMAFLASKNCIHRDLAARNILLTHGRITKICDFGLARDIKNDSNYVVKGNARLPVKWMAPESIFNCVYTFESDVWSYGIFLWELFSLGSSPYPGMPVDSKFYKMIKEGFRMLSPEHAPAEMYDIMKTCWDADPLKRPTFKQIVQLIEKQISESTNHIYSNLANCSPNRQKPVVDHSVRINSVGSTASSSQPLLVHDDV
The target in assay [20] is Proto-oncogene tyrosine-protein kinase Src (Homo sapiens, UniProt P12931). As to the kind of experiment: Inhibition of c-SRC (unknown origin) using FAM-labelled peptide as substrate measured after 10 mins by mobility shift assay.
Proto-oncogene tyrosine-protein kinase Src, sequence (P12931 2-536 limits assumed): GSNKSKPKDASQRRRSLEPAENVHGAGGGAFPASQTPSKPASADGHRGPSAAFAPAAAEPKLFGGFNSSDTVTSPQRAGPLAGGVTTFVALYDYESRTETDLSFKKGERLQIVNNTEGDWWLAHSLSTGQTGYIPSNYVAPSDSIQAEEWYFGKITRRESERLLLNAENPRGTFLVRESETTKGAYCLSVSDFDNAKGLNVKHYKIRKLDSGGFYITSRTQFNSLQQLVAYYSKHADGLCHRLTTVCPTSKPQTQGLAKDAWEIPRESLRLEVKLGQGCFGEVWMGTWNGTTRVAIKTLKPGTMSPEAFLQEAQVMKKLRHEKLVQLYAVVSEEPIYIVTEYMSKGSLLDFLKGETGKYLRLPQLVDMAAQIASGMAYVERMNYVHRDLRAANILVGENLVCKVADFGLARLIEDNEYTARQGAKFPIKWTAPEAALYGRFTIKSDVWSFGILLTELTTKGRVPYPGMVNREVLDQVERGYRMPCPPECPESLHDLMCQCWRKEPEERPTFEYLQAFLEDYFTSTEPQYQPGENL
The target of assay [21] is Epidermal growth factor receptor (Homo sapiens, UniProt P00533). In words: Inhibition of EGFR (unknown origin) using FAM-labelled peptide as substrate measured after 10 mins by mobility shift assay.
Assay [22] has as its system HT-29. As to the kind of experiment: Antiproliferative activity against human HT-29 cells assessed as reduction in cell proliferation at 0.37 ug/ml after 72 hrs by phase contrast microscopy. Format: functional, cell-based.
Assay [23] concerns HT-29. As to the kind of experiment: Antiproliferative activity against human HT-29 cells assessed as increase in dead cell population at 10 ug/ml measured after 66 hrs by IncuCyte live-cell imaging analysis. In kind it is functional, cell-based.

Insulin-like growth factor 1 receptor, sequence (P08069 31-736 limits assumed): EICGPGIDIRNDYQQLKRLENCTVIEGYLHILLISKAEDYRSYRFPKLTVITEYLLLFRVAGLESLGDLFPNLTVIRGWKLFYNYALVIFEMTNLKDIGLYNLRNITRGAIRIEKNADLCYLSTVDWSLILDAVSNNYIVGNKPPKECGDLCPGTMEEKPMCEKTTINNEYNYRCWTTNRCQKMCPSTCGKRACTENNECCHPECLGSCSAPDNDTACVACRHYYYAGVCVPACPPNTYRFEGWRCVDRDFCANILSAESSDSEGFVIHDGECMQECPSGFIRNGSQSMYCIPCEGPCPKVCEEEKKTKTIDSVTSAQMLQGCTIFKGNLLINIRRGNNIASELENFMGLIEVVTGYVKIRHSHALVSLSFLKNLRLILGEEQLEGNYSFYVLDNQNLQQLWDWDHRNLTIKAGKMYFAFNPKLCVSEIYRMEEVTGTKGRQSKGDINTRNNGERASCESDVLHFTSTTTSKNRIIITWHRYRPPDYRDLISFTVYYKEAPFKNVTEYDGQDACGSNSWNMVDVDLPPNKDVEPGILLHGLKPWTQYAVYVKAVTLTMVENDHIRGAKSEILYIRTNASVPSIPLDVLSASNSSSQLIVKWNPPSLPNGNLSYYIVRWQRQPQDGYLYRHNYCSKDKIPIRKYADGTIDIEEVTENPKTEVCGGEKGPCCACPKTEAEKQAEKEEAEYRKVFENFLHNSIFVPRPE
Insulin-like growth factor 1 receptor, sequence (P08069 741-1367 limits assumed): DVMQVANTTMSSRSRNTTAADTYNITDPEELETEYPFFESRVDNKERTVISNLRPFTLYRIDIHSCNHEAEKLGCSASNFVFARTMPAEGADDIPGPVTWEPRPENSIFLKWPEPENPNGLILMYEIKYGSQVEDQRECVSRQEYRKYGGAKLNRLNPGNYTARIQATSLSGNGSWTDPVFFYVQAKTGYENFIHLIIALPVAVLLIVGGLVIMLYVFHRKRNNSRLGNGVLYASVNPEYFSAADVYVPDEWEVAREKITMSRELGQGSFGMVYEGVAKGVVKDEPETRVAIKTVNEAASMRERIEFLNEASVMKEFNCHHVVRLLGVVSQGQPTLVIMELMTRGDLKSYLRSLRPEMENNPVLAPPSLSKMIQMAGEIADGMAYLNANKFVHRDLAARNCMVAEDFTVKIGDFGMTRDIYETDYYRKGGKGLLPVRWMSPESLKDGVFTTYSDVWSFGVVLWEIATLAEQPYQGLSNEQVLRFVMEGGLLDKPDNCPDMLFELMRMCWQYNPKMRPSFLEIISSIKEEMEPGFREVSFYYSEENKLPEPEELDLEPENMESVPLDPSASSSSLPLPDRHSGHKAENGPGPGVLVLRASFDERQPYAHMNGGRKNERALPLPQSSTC

As for `COc1cc2c(Oc3ccc(C4SCC(=O)N4NC(=O)Nc4ccc(F)cc4F)c(F)c3)ccnc2cc1OCCCN1CCOCC1` (stereo unspecified), the IC50 in the assay on A549 was determined as 4.6 µM; with HT-29 [1], 1.3 µM.

With `COc1cc2c(Oc3ccc(C4SCC(=O)N4NC(=O)Nc4ccc(F)cc4)cc3)ccnc2cc1OCCCN1CCOCC1` (stereo unspecified), the values for the 50% inhibitory concentration (IC50) in the assay with A549 and in the assay with HT-29 [1] were 4.9 µM and 4.8 µM, respectively.

As for `COc1cc2c(Oc3ccc(C4SCC(=O)N4NC(=O)Nc4ccc(F)cc4F)cc3F)ccnc2cc1OCCCN1CCOCC1` (stereo unspecified), the IC50 is 2.1 µM with A549 and 0.86 µM in the assay with HT-29 [1].

`COc1cc2c(Oc3ccc(C4SCC(=O)N4NC(=O)Nc4ccccc4Cl)cc3)ccnc2cc1OCCCN1CCOCC1` (stereo unspecified): the half-inhibitory concentration (IC50) in the assay on A549 amounted to 8.5 µM; in the assay with HT-29 [1], 6.5 µM.

For the compound `COc1cc2c(Oc3ccc(C4SCC(=O)N4NC(=O)Nc4ccccc4F)cc3)ccnc2cc1OCCCN1CCOCC1` (stereo unspecified), the IC50 in the assay with A549 is 7 µM.

With `COc1cc2c(Oc3ccc(C4SCC(=O)N4NC(=O)Nc4ccc(F)cc4F)cc3)ccnc2cc1OCCCN1CCOCC1` (stereo unspecified), the IC50 in the assay with A549 stood at 6 µM; in the assay with HT-29 [1] it was 2.3 µM.

With `COc1cc2c(Oc3ccc(C4SCC(=O)N4NC(=O)Nc4ccc(F)cc4F)c(Cl)c3)ccnc2cc1OCCCN1CCOCC1` (stereo unspecified), the IC50 with A549 was found to be 6.1 µM; with HT-29 [1], 2.8 µM.

Turning to `COc1cc2c(Oc3ccc(C4SCC(=O)N4NC(=O)Nc4ccc(F)cc4F)cc3Cl)ccnc2cc1OCCCN1CCOCC1` (stereo unspecified), the IC50 with A549 turned out to be 6.7 µM; in the assay with HT-29 [1], 2.4 µM.

`COc1cc2c(Oc3ccc(C4SCC(=O)N4NC(=O)Nc4ccc(Cl)cc4)cc3)ccnc2cc1OCCCN1CCOCC1` (stereo unspecified): the values for the IC50 in the assay with A549 and in the assay on HT-29 [1] were 6.7 µM and 6.6 µM, respectively.

For the compound `COc1cc2c(Oc3ccc(C4SCC(=O)N4NC(=O)Nc4ccc(F)cc4F)cc3F)ccnc2cc1OCCCN1CCCN(C)CC1` (stereo unspecified), the results for the concentration for half-maximal inhibition (IC50) with A549 and in the assay with HT-29 [1] were 0.71 µM and 0.18 µM, respectively.

Regarding `CCN1CCN(CCCOc2cc3nccc(Oc4ccc(C5SCC(=O)N5NC(=O)Nc5ccc(F)cc5F)cc4F)c3cc2OC)CC1` (stereo unspecified), the IC50 was 1 µM with A549 and 0.32 µM with HT-29 [1].

Turning to `COc1cc2c(Oc3ccc(C4SCC(=O)N4NC(=O)Nc4ccc(F)cc4F)cc3F)ccnc2cc1OCCCN1CCN(C)CC1` (stereo unspecified), the IC50 in the assay with A549 was found to be 0.65 µM; in the assay on HT-29 [1], 0.11 µM; in assay [16], 0.0086 µM; in [17], 0.0187 µM; in assay [18], 6.66 µM; in assay [19] it was 0.352 µM. Further, the IC50 in assay [20] was determined as 0.383 µM; in assay [21], 0.4 µM. Moreover, the Activity entry in the assay on HT-29 [2] is “Dose-dependent effect”; in the assay with HT-29 [3], “Dose-dependent effect”; in the assay with HT-29 [5] it was “Dose-dependent effect”; in the assay on HT-29 [11], “Dose-dependent effect”; in the assay on HT-29 [12], 65.5%; in the assay with HT-29 [13], 56.6%. In addition, the Activity with HT-29 [14] is 62%; with HT-29 [15], 69.4%. For the same compound, the outcome with HT-29 [4], with HT-29 [6], in the assay with HT-29 [8], in the assay on HT-29 [9] and with HT-29 [10] was Active. Moreover, the Ratio in the assay on HT-29 [7] is listed as more than 10.

Regarding `COc1cc2c(Oc3ccc(C4SCC(=O)N4NC(=O)Nc4cccc(Cl)c4)cc3)ccnc2cc1OCCCN1CCOCC1` (stereo unspecified), the figures for the IC50 in the assay with A549 and in the assay with HT-29 [1] were 8.9 µM and 7.7 µM, respectively.

With `COc1cc2nccc(Oc3ccc(NC(=O)C4(C(=O)Nc5ccc(F)cc5)CC4)cc3)c2cc1OC` [CABOZANTINIB], the IC50 in the assay with A549 is 8.5 µM. Further, the result in the assay with HT-29 [22], with HT-29 [23], in the assay with HT-29 [9] and in the assay on HT-29 [10] was Active.

For the compound `COc1cc2c(Oc3ccc(C4SCC(=O)N4NC(=O)Nc4ccccc4)cc3)ccnc2cc1OCCCN1CCOCC1` (stereo unspecified), the concentration for half-maximal inhibition (IC50) came to 8.7 µM in the assay with A549 and 5.2 µM with HT-29 [1].

On to `COc1cc2c(Oc3ccc(C4SCC(=O)N4NC(=O)Nc4cc(F)cc(F)c4)cc3)ccnc2cc1OCCCN1CCOCC1` (stereo unspecified), for which the IC50 in the assay with A549 is 6.1 µM; with HT-29 [1] it was 4.9 µM.

With `COc1cc2c(Oc3ccc(C4SCC(=O)N4NC(=O)Nc4ccc(F)c(F)c4F)cc3)ccnc2cc1OCCCN1CCOCC1` (stereo unspecified), the IC50 with A549 was determined as 5.5 µM; with HT-29 [1], 4.4 µM.
